Patent US12077503B2, “Substituted cyclic amides and their use as herbicides” (FMC CORPORATION, priority 2015, dated 2024)

What was measured:
Type in all cases: in vivo
[1] = tested on: giant foxtail (Setaria faberi); experiment: Test G Post-Emergence Protocol; settings: Setaria faberi, post-emergence, 312 h; for pest or weed control at 15.625 g/ha: 15.625 g ai/ha, evaluated after 13 days (100=total damage to plant; 0=no damage to plant), read-out: Foxtail, Giant damage rating; for pest or weed control at 62.5 g/ha: 62.5 g ai/ha, read-out: Foxtail, Giant damage rating (100=total damage to plant; 0=no damage to plant); for pest or weed control at 62.5 g/ha / pest or weed control at 250 g/ha: evaluated after 13 days; for pest or weed control at 250 g/ha: 250 g ai/ha, read-out: damage to plant, Foxtail, Giant (100=total damage to plant; 0=no damage to plant)
Method in brief: (§1)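 Pot-grown seedlings, 8 days old, raised in a glasshouse at 24/16 °C day/night with 14 h light and 65% humidity, were sprayed post-emergence with test compound in acetone/water (50:50) plus 0.5% Tween 20 at 15.625, 62.5 or 250 g/ha. Damage was scored visually 13 days later on a 0–100 scale (100 = total damage).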

[2] = tested on: barnyardgrass (Echinochloa crus-galli); experiment: Test G Post-Emergence Protocol; settings: Echinochloa crus-galli, post-emergence, 312 h; for pest or weed control at 15.625 g/ha: 15.625 g ai/ha, evaluated after 13 days (100=total damage to plant; 0=no damage to plant), read-out: Barnyardgrass damage rating; for pest or weed control at 62.5 g/ha: 62.5 g ai/ha, read-out: Barnyardgrass damage rating (100=total damage to plant; 0=no damage to plant); for pest or weed control at 62.5 g/ha / pest or weed control at 250 g/ha: evaluated after 13 days; for pest or weed control at 250 g/ha: 250 g ai/ha, read-out: damage to plant, Barnyardgrass (100=total damage to plant; 0=no damage to plant)
Method in brief: as §1

[3] = tested on: velvetleaf (Abutilon theophrasti); experiment: Test G Post-Emergence Protocol; settings: Abutilon theophrasti, post-emergence, 312 h; for pest or weed control at 15.625 g/ha: 15.625 g ai/ha, evaluated after 13 days (100=total damage to plant; 0=no damage to plant), read-out: Velvetleaf damage rating; for pest or weed control at 62.5 g/ha: 62.5 g ai/ha, read-out: Velvetleaf damage rating (100=total damage to plant; 0=no damage to plant); for pest or weed control at 62.5 g/ha / pest or weed control at 250 g/ha: evaluated after 13 days; for pest or weed control at 250 g/ha: 250 g ai/ha, read-out: damage to plant, Velvetleaf (100=total damage to plant; 0=no damage to plant)
Method in brief: as §1

[4] = tested on: redroot pigweed (Amaranthus retroflexus); experiment: Test G Post-Emergence Protocol; settings: Amaranthus retroflexus, post-emergence, 312 h; for pest or weed control at 15.625 g/ha: 15.625 g ai/ha, evaluated after 13 days (100=total damage to plant; 0=no damage to plant), read-out: Pigweed, Redroot damage rating; for pest or weed control at 62.5 g/ha: 62.5 g ai/ha, read-out: Pigweed, Redroot damage rating (100=total damage to plant; 0=no damage to plant); for pest or weed control at 62.5 g/ha / pest or weed control at 250 g/ha: evaluated after 13 days; for pest or weed control at 250 g/ha: 250 g ai/ha, read-out: damage to plant, Pigweed, Redroot (100=total damage to plant; 0=no damage to plant)
Method in brief: as §1

[5] = tested on: ivy-leaved morning glory (Ipomoea hederacea); experiment: Test G Post-Emergence Protocol; settings: Ipomoea, post-emergence, 312 h; for pest or weed control at 15.625 g/ha: 15.625 g ai/ha, evaluated after 13 days (100=total damage to plant; 0=no damage to plant), read-out: Morningglory, Ivy-leaved damage rating; for pest or weed control at 62.5 g/ha: 62.5 g ai/ha, read-out: Morningglory, Ivy-leaved damage rating (100=total damage to plant; 0=no damage to plant); for pest or weed control at 62.5 g/ha / pest or weed control at 250 g/ha: evaluated after 13 days; for pest or weed control at 250 g/ha: 250 g ai/ha, read-out: damage to plant, Morningglory, Ivy-leaved (100=total damage to plant; 0=no damage to plant)
Method in brief: as §1

[6] = tested on: corn (Zea mays); experiment: Test G Post-Emergence Protocol; settings: Zea mays, post-emergence, 312 h; for plant injury at 15.625 g/ha: 15.625 g ai/ha, evaluated after 13 days (100=total damage to plant; 0=no damage to plant), read-out: Corn damage rating; for plant injury at 62.5 g/ha: 62.5 g ai/ha, read-out: Corn damage rating (100=total damage to plant; 0=no damage to plant); for plant injury at 62.5 g/ha / plant injury at 250 g/ha: evaluated after 13 days; for plant injury at 250 g/ha: 250 g ai/ha, read-out: damage to plant, Corn (100=total damage to plant; 0=no damage to plant)
Method in brief: as §1

[7] = tested on: giant foxtail (Setaria faberi); experiment: Test G Pre-Emergence Protocol; settings: Setaria faberi, pre-emergence, 312 h, evaluated after 13 days; for pest or weed control at 15.625 g/ha: 15.625 g ai/ha; for pest or weed control at 15.625 g/ha / pest or weed control at 250 g/ha: read-out: Foxtail, Giant damage rating (100=total damage to plant; 0=no damage to plant); for pest or weed control at 62.5 g/ha: 62.5 g ai/ha, 100=total damage to plant, 0=no damage to plant, read-out: plant damage rating, Foxtail, Giant; for pest or weed control at 250 g/ha: 250 g ai/ha
Method in brief: (§2)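 Under a 24/16° C day/night regime with 14 h light and 65% humidity, sown pots were sprayed after one day with compound (15.625, 62.5 or 250 g/ha; 50:50 acetone/water, 0.5% Tween 20). Damage was assessed visually 13 days later, 0 to 100.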

[8] = tested on: barnyardgrass (Echinochloa crus-galli); experiment: Test G Pre-Emergence Protocol; settings: Echinochloa crus-galli, pre-emergence, 312 h, evaluated after 13 days; for pest or weed control at 15.625 g/ha: 15.625 g ai/ha, read-out: Barnyard grass damage rating (100=total damage to plant; 0=no damage to plant); for pest or weed control at 62.5 g/ha: 62.5 g ai/ha, 100=total damage to plant, 0=no damage to plant, read-out: plant damage rating, Barnyardgrass; for pest or weed control at 250 g/ha: 250 g ai/ha, read-out: Barnyardgrass damage rating (100=total damage to plant; 0=no damage to plant)
Method in brief: as §2

[9] = tested on: velvetleaf (Abutilon theophrasti); experiment: Test G Pre-Emergence Protocol; settings: Abutilon theophrasti, pre-emergence, 312 h, evaluated after 13 days; for pest or weed control at 15.625 g/ha: 15.625 g ai/ha; for pest or weed control at 15.625 g/ha / pest or weed control at 250 g/ha: read-out: Velvetleaf damage rating (100=total damage to plant; 0=no damage to plant); for pest or weed control at 62.5 g/ha: 62.5 g ai/ha, 100=total damage to plant, 0=no damage to plant, read-out: plant damage rating, Velvetleaf; for pest or weed control at 250 g/ha: 250 g ai/ha
Method in brief: as §2

[10] = tested on: redroot pigweed (Amaranthus retroflexus); experiment: Test G Pre-Emergence Protocol; settings: Amaranthus retroflexus, pre-emergence, 312 h, evaluated after 13 days; for pest or weed control at 15.625 g/ha: 15.625 g ai/ha; for pest or weed control at 15.625 g/ha / pest or weed control at 250 g/ha: read-out: Pigweed, Redroot damage rating (100=total damage to plant; 0=no damage to plant); for pest or weed control at 62.5 g/ha: 62.5 g ai/ha, 100=total damage to plant, 0=no damage to plant, read-out: plant damage rating, Pigweed, Redroot; for pest or weed control at 250 g/ha: 250 g ai/ha
Method in brief: as §2

[11] = tested on: ivy-leaved morning glory (Ipomoea hederacea); experiment: Test G Pre-Emergence Protocol; settings: Ipomoea, pre-emergence, 312 h, evaluated after 13 days; for pest or weed control at 15.625 g/ha: 15.625 g ai/ha, read-out: Morning-glory, Ivy-leaved damage rating (100=total damage to plant; 0=no damage to plant); for pest or weed control at 62.5 g/ha: 62.5 g ai/ha, 100=total damage to plant, 0=no damage to plant, read-out: plant damage rating, Morningglory, Ivy-leaved; for pest or weed control at 250 g/ha: 250 g ai/ha, read-out: Morningglory, Ivy-leaved damage rating (100=total damage to plant; 0=no damage to plant)
Method in brief: as §2

[12] = tested on: corn (Zea mays); experiment: Test G Pre-Emergence Protocol; settings: Zea mays, pre-emergence, 312 h, evaluated after 13 days; for plant injury at 15.625 g/ha: 15.625 g ai/ha; for plant injury at 15.625 g/ha / plant injury at 250 g/ha: read-out: Corn damage rating (100=total damage to plant; 0=no damage to plant); for plant injury at 62.5 g/ha: 62.5 g ai/ha, 100=total damage to plant, 0=no damage to plant, read-out: plant damage rating, Corn; for plant injury at 250 g/ha: 250 g ai/ha
Method in brief: as §2

Row | SMILES | pest or weed control at 15.625 g/ha [1] [%] | pest or weed control at 62.5 g/ha [1] [%] | pest or weed control at 250 g/ha [1] [%] | pest or weed control at 15.625 g/ha [2] [%] | pest or weed control at 62.5 g/ha [2] [%] | pest or weed control at 250 g/ha [2] [%] | pest or weed control at 15.625 g/ha [3] [%] | pest or weed control at 62.5 g/ha [3] [%] | pest or weed control at 250 g/ha [3] [%] | pest or weed control at 15.625 g/ha [4] [%] | pest or weed control at 62.5 g/ha [4] [%] | pest or weed control at 250 g/ha [4] [%] | pest or weed control at 15.625 g/ha [5] [%] | pest or weed control at 62.5 g/ha [5] [%] | pest or weed control at 250 g/ha [5] [%] | plant injury at 15.625 g/ha [6] [%] | plant injury at 62.5 g/ha [6] [%] | plant injury at 250 g/ha [6] [%] | pest or weed control at 15.625 g/ha [7] [%] | pest or weed control at 62.5 g/ha [7] [%] | further results
1 | CN1C[C@@H](c2ccc(C(F)(F)F)cc2)[C@H](C(=O)Nc2cc(Cl)n[nH]2)C1=O (racemic) [Compound 1632] | 0 | 0 | 20 | 0 | 0 | 10 | 0 | 0 | 0 | 0 | 0 | 20 | 0 | 0 | 0 | 0 | 0 | 0 | 0 | 0 | pest or weed control at 250 g/ha [7]: 0%; pest or weed control at 15.625 g/ha [8]: 0%; pest or weed control at 62.5 g/ha [8]: 0%; pest or weed control at 250 g/ha [8]: 0%; pest or weed control at 15.625 g/ha [9]: 0%; pest or weed control at 62.5 g/ha [9]: 0%; pest or weed control at 250 g/ha [9]: 0%; pest or weed control at 15.625 g/ha [10]: 0%; pest or weed control at 62.5 g/ha [10]: 0%; pest or weed control at 250 g/ha [10]: 0%; pest or weed control at 15.625 g/ha [11]: 0%; pest or weed control at 62.5 g/ha [11]: 0%; pest or weed control at 250 g/ha [11]: 0%; plant injury at 15.625 g/ha [12]: 0%; plant injury at 62.5 g/ha [12]: 0%; plant injury at 250 g/ha [12]: 0%
2 | Cc1cccc(NC(=O)[C@@H]2C(=O)N(C)C[C@H]2c2ccc(C(F)(F)F)cc2)c1[N+](=O)[O-] (racemic) [Compound 1636] | 50 | 70 | 70 | 10 | 50 | 50 | 0 | 0 | 0 | 0 | 0 | 0 | 0 | 0 | 0 | 0 | 0 | 0 | 0 | 40 | pest or weed control at 250 g/ha [7]: 60%; pest or weed control at 15.625 g/ha [8]: 0%; pest or weed control at 62.5 g/ha [8]: 10%; pest or weed control at 250 g/ha [8]: 30%; pest or weed control at 15.625 g/ha [9]: 0%; pest or weed control at 62.5 g/ha [9]: 0%; pest or weed control at 250 g/ha [9]: 0%; pest or weed control at 15.625 g/ha [10]: 0%; pest or weed control at 62.5 g/ha [10]: 0%; pest or weed control at 250 g/ha [10]: 0%; pest or weed control at 15.625 g/ha [11]: 0%; pest or weed control at 62.5 g/ha [11]: 0%; pest or weed control at 250 g/ha [11]: 0%; plant injury at 15.625 g/ha [12]: 0%; plant injury at 62.5 g/ha [12]: 0%; plant injury at 250 g/ha [12]: 0%
